Drawing on patent US11634391B2, “Compounds which are inhibitors of Notum” (UCL BUSINESS LTD, priority 2018, dated 2023), this text covers IC50 for 55 molecules.

The target in this assay is notum carboxyesterase enzyme (Homo sapiens (Human), UniProt Q6P988). The assay can be described thus: Biochemical Notum Enzymatic Activity Assay (OPTS substrate, fluorescence). Conditions: 2 μM OPTS solution, 2.38 nM notum enzyme solution, 1 hour incubation at room temperature, fluorescence ex 485 nm / em 520 nm; n≥2. From the text: Plate layout and measured fluorescence values were input into Dotmatics Studies data management tool.

Structures can show the parent of a compound that is named as a salt.

Sequence of notum carboxyesterase enzyme (Q6P988 20-496): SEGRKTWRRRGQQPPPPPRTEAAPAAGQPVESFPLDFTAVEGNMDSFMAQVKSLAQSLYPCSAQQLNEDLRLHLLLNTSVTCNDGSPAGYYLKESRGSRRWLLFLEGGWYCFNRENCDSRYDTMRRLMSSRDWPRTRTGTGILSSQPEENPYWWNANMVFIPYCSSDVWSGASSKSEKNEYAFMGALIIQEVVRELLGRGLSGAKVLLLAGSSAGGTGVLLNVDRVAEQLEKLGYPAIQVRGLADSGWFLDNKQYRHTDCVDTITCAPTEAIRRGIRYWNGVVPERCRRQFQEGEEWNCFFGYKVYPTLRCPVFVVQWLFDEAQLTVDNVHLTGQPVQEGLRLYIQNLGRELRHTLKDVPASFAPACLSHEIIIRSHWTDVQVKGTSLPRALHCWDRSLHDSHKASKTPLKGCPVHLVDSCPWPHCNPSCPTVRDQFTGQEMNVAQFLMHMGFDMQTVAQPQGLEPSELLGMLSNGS

`OCc1cn(-c2cccc(Cl)c2)nn1` [Compound 21, (1-(3-chlorophenyl)-1H-1,2,3-triazol-4-yl)methanol] displayed an IC50 of 9.49 µM. `FC(F)(F)c1c(Cl)cnc(-n2ccnn2)c1Cl` [Compound 307, 3,5-dichloro-2-(triazol-1-yl)-4-(trifluoromethyl)pyridine] gave an IC50 of 0.0081 µM. Turning to `OCc1cn(-c2ccc(Cl)c(Cl)c2)nn1` [Compound 19, (1-(3,4-dichlorophenyl)-1H-1,2,3-triazol-4-yl)methanol], the IC50 worked out at 0.484 µM. Molecule `Nc1nnc(-c2ccc(Cl)cc2)s1` [Compound 168, 5-(4-chlorophenyl)-1,3,4-thiadiazol-2-amine] yielded an IC50 of 8.29 µM. With `CN(C)Cc1cn(-c2ccc(Cl)c(Cl)c2)nn1` [Compound 44, 1-(1-(3,4-dichlorophenyl)-1H-1,2,3-triazol-4-yl)-N,N-dimethylmethanamine hydrochloride] the figure was 74.5 µM. Turning to `Clc1ccc(-c2cnco2)cc1` [Compound 151, 5-(4-chlorophenyl)oxazole], the IC50 was 5.74 µM.

Take `OCc1nnc(-c2ccc(Cl)c(Cl)c2)o1` [Compound 126, [5-(3,4-dichlorophenyl)-1,3,4-oxadiazol-2-yl]methanol]: the IC50 was 0.726 µM. With `Nc1nnc(-c2ccc(Cl)c(C(F)(F)F)c2Cl)o1` [Compound 248, 5-[2,4-dichloro-3-(trifluoromethyl)phenyl]-1,3,4-oxadiazol-2-amine] the figure was 0.0119 µM; with `FC(F)(F)c1cc(-n2ccnn2)ccc1Cl` [Compound 175, 1-[4-chloro-3-(trifluoromethyl)phenyl]triazole], 0.0993 µM. Under `FC(F)(F)c1c(Cl)ccc(-n2cnnn2)c1Cl` [Compound 298, 1-(2,4-dichloro-3-(trifluoromethyl)phenyl)-1H-tetrazole] stands 0.136 µM; under `NCc1cc(-c2cccc(Cl)c2)no1` [Compound 147, (3-(3-chlorophenyl)isoxazol-5-yl)methanamine], 15.2 µM; under `Cc1nnc(-c2ccc(Cl)c(C(F)(F)F)c2Cl)o1` [Compound 299, 2-(2,4-dichloro-3-(trifluoromethyl)phenyl)-5-methyl-1,3,4-oxadiazole], 0.027 µM. On to `O=C(O)c1cn(-c2ccc(Cl)c(C(F)(F)F)c2Cl)nn1` [Compound 304, 1-[2,4-dichloro-3-(trifluoromethyl)phenyl]triazole-4-carboxylic acid], for which the half-inhibitory concentration (IC50) is 0.0303 µM. With `OCc1cn(-c2cc(Cl)ccc2Cl)nn1` [Compound 26, (1-(2,5-dichlorophenyl)-1H-1,2,3-triazol-4-yl)methanol] the figure was 25.5 µM; with `FC(F)(F)c1cc(-n2ccnn2)ccc1N1CCCC1` [Compound 286, 1-(4-(pyrrolidin-1-yl)-3-(trifluoromethyl)phenyl)-1H-1,2,3-triazole], 0.862 µM. The molecule `Fc1cc(F)cc(-c2cc[nH]n2)c1` [Compound 56, 3-(3,5-difluorophenyl)-1H-pyrazole] came in with an IC50 of 23 µM.

On to `FC(F)(F)c1ccc(-c2nnc(S)o2)cc1C1CC1` [Compound 187, 5-[3-cyclopropyl-4-(trifluoromethyl)phenyl]-1,3,4-oxadiazole-2-thiol], for which the IC50 came to 0.426 µM. In turn, `OCc1cn(-c2ccc(C(F)(F)F)cc2)nn1` [Compound 271, (1-(4-(trifluoromethyl)phenyl)-1H-1,2,3-triazol-4-yl)methanol] registered an IC50 of 8.7 µM.

Molecule `CN(C)c1nnc(-c2ccc(Cl)c(C(F)(F)F)c2Cl)o1` [Compound 247, 5-(2,4-dichloro-3-(trifluoromethyl)phenyl)-N,N-dimethyl-1,3,4-oxadiazol-2-amine] returned a 50% inhibitory concentration (IC50) of 0.439 µM. For the molecule `Clc1ccc(-n2cnnn2)cc1` [Compound 216, 1-(4-chlorophenyl)tetrazole], half-maximal inhibition (IC50) was put at 26.9 µM.

`FC(F)(F)c1c(Cl)ccc(-c2c[nH]nn2)c1Cl` [Compound 306, 4-[2,4-dichloro-3-(trifluoromethyl)phenyl]-1H-triazole] registered an IC50 of 0.0029 µM.

In the case of `OCc1cn(-c2cccc3ccccc23)nn1` [Compound 25, (1-(naphthalen-1-yl)-1H-1,2,3-triazol-4-yl)methanol], the IC50 is 36.8 µM. With `CN1CC(C)(C)c2cc(-c3nnc(O)o3)ccc21` [Compound 180, 5-(1,3,3-trimethylindolin-5-yl)-1,3,4-oxadiazol-2-ol] the figure was 0.0344 µM; with `CCOc1nnc(-c2ccc(Cl)c(C(F)(F)F)c2Cl)o1` [Compound 242, 2-(2,4-dichloro-3-(trifluoromethyl)phenyl)-5-ethoxy-1,3,4-oxadiazole], 0.0043 µM.

For the molecule `FC(F)(F)c1cc(-n2ccnn2)cc(Cl)c1Cl` [Compound 309, 1-[3,4-dichloro-5-(trifluoromethyl)phenyl]triazole], half-maximal inhibition (IC50) was put at 0.107 µM. The molecule `CCOc1cccc(-c2nnc(N)s2)c1` [Compound 48, 5-(3-ethoxyphenyl)-1,3,4-thiadiazol-2-amine] came in with an IC50 of 85.9 µM. With `Oc1nnc(-c2cc(C3CC3)cc(C(F)(F)F)c2)o1` [Compound 211, 5-[3-cyclopropyl-5-(trifluoromethyl)phenyl]-1,3,4-oxadiazol-2-ol] the figure was 0.433 µM; with `Oc1nnc(-c2ccc(C3CC3)nc2)o1` [Compound 209, 5-(6-cyclopropyl-3-pyridyl)-1,3,4-oxadiazol-2-ol], 43.5 µM; with `NCc1cc(-c2ccc(Cl)cc2)no1` [Compound 167, (3-(4-chlorophenyl)isoxazol-5-yl)methanamine], 70.2 µM.

Regarding `Clc1ccc(-n2ccnc2)cc1` [Compound 149, 1-(4-chlorophenyl)imidazole], the IC50 came out at 5.16 µM.

The molecule `OCc1ncn(-c2ccc(Cl)c(Cl)c2)n1` [Compound 47, (1-(3,4-dichlorophenyl)-1H-1,2,4-triazol-3-yl)methanol] yielded an IC50 of 49.5 µM.

Consider `Cc1ccc(-n2cc(CO)nn2)cc1C` [Compound 5, (1-(3,4-dimethylphenyl)-1H-1,2,3-triazol-4-yl)methanol], for which inhibition was half-maximal at 0.81 µM (IC50).

Consider `Cn1ncc2ccc(-n3cc(CO)nn3)cc21` [Compound 15, (1-(1-methyl-1H-indazol-6-yl)-1H-1,2,3-triazol-4-yl)methanol], for which it took 86.1 µM to reach half-maximal inhibition (IC50).

`OCc1cn(-c2ccc(C(F)(F)F)c(Cl)c2)nn1` [Compound 13, (1-(3-chloro-4-(trifluoromethyl)phenyl)-1H-1,2,3-triazol-4-yl)methanol] gave an IC50 of 1.72 µM. Under `OCCCc1cn(-c2ccc(Cl)c(C(F)(F)F)c2)nn1` [Compound 302, 3-[1-[4-chloro-3-(trifluoromethyl)phenyl]triazol-4-yl]propan-1-ol] stands 7.51 µM. Molecule `COc1cc(-n2cc(CO)nn2)ccc1Cl` [Compound 30, (1-(4-chloro-3-methoxyphenyl)-1H-1,2,3-triazol-4-yl)methanol] registered an IC50 of 6.61 µM. Take `Oc1c(F)cc(F)cc1-c1cc[nH]n1` [Compound 52, 2,4-difluoro-6-(1H-pyrazol-3-yl)phenol]: the IC50 amounted to 3.27 µM. In turn, `O=c1cccc(-c2ccccc2)[nH]1` [Compound 237, 6-phenylpyridin-2(1H)-one] showed an IC50 of 49.6 µM.

`FC(F)(F)c1cc(-c2nnco2)ccn1` [Compound 222, 2-[2-(trifluoromethyl)-4-pyridyl]-1,3,4-oxadiazole] showed an IC50 of 8.05 µM. With `Clc1ccc(-n2cnnn2)cc1Cl` [Compound 214, 1-(3,4-dichlorophenyl)tetrazole] the figure was 1.56 µM.

With `NCc1nc(-c2ccc(Cl)cc2)no1` [Compound 152, [3-(4-chlorophenyl)-1,2,4-oxadiazol-5-yl]methanamine], the IC50 stood at 43.1 µM. With `OCc1cn(-c2ccc3ccccc3c2)nn1` [Compound 3, (1-(naphthalen-2-yl)-1H-1,2,3-triazol-4-yl)methanol] the figure was 1.28 µM; with `FC(F)(F)c1cccc(-c2nnco2)n1` [Compound 221, 2-[6-(trifluoromethyl)-2-pyridyl]-1,3,4-oxadiazole], 82.5 µM. Under `c1ccc(-n2cnnn2)cc1` [Compound 134, 1-phenyl-1H-tetrazole] stands 19.4 µM; under `Cc1ccc(-c2csnn2)cc1` [Compound 145, 4-(p-tolyl)-1,2,3-thiadiazole], 3.47 µM.

`CC(O)Cc1cn(-c2ccc(Cl)c(C(F)(F)F)c2Cl)nn1` (stereo not shown) [Compound 305, 1-[1-[2,4-dichloro-3-(trifluoromethyl)phenyl]triazol-4-yl]propan-2-ol] returned an IC50 of 1.32 µM. Regarding `FC(F)(F)c1ccc(-c2c[nH]nn2)cc1C(F)(F)F` [Compound 49, 4-(3,4-bis(trifluoromethyl)phenyl)-1H-1,2,3-triazole], inhibition was half-maximal at 0.008 µM (IC50). With `OCc1cn(-c2ccc(Cl)c(C(F)(F)F)c2)nn1` [Compound 9, (1-(4-chloro-3-(trifluoromethyl)phenyl)-1H-1,2,3-triazol-4-yl)methanol] the figure was 0.0935 µM. The molecule `NCc1cn(-c2ccc(Cl)c(Cl)c2)nn1` [Compound 31, (1-(3,4-dichlorophenyl)-1H-1,2,3-triazol-4-yl)methanamine] registered an IC50 of 8.82 µM. With `Cn1nc(-c2ccc(Cl)c(C(F)(F)F)c2Cl)oc1=O` [Compound 245, 5-(2,4-dichloro-3-(trifluoromethyl)phenyl)-3-methyl-1,3,4-oxadiazol-2(3H)-one] the figure was 0.067 µM; with `CC(O)c1cn(-c2ccc(Cl)c(C(F)(F)F)c2Cl)nn1` (stereo not shown) [Compound 310, 1-[1-[2,4-dichloro-3-(trifluoromethyl)phenyl]triazol-4-yl]ethanol], 1.83 µM; with `OCc1cc(-c2ccc(Cl)cc2)[nH]n1` [Compound 171, [5-(4-chlorophenyl)-1H-pyrazol-3-yl]methanol], > 10 µM. `Cc1cc(C)cc(-n2cnnn2)c1` [Compound 194, 1-(3,5-dimethylphenyl)tetrazole]: the IC50 was 3.22 µM. In turn, `CC(C)c1ccc(-n2ccnn2)cc1` [Compound 60, 1-(4-isopropylphenyl)-1H-1,2,3-triazole] returned an IC50 of 0.995 µM. `OCc1cn(-c2ccc(Cl)c(Cl)c2)cn1` [Compound 127, [1-(3,4-dichlorophenyl)imidazol-4-yl]methanol] yielded an IC50 of 5.95 µM.

One may read the IC50 as the concentration that gives 50% inhibition.
